Measurements reported in US20140303144A1, “COMPOUNDS AND METHODS OF TREATING HYPERTENSION” (Medivation Technologies, Inc., priority 2011, published 2014).

Legend:
[1] = biological target: T1, human recombinant adrenergic α2B receptor (Homo sapiens, UniProt P18089); test: Adrenergic α2B radioligand binding assay ([3H]Rauwolscine); conditions: for inhibition at 0.1 µM / Percentage inhibition of ligand binding, Adrenergic α2B: 0.1 μM compound; for inhibition at 0.1 µM / inhibition at 0.03 µM / inhibition at 1 µM: read-out: Percentage inhibition of ligand binding, Adrenergic α2B; for inhibition at 0.03 µM: 0.03 μM compound; for inhibition at 1 µM: 1 μM compound; for Percentage inhibition of ligand binding, Adrenergic α2B: 0.1 µM
T1 construct: expressed in transfected cells; host or cells: CHO-K1 cells
T1 sequence (P18089 1-450): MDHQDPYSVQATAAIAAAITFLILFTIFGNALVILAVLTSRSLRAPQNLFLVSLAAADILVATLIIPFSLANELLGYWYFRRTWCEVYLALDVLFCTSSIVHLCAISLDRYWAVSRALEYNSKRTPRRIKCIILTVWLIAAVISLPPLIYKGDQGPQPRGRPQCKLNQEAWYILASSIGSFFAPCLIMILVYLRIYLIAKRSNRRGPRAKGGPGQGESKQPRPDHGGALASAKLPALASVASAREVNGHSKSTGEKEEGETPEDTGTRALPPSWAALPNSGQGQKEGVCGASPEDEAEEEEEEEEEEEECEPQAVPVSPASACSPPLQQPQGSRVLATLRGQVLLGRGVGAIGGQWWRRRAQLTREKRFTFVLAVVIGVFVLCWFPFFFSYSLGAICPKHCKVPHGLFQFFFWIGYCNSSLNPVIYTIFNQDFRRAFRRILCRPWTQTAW
Procedure: To evaluate in radioligand binding assays the activity of compounds of the invention, human recombinant adrenergic α2B receptor expressed in Chinese hamster ovary (CHO) K1 cells (Uhlen, S. et al, Eur. J. Pharmacol. 343(1):93, 1998) in a modified Tris-HCl buffer (50 mM Tris-HCl, pH 7.4, 12.5 mM MgCl2, 1 mM EDTA, 0.2% BSA) was used. Compounds of the invention were incubated with 2.5 nM [3H]Rauwolscine for 60 min at 25° C. Non-specific binding was estimated in the presence of 10 μM Prazosin. Receptor proteins were filtered and washed, the filters were then counted to determine [3H]Rauwolscine specifically bound. Compounds were screened at 1 μM or lower, using 1% DMSO as vehicle. Compounds of the invention were tested in this biochemical assay and percent inhibition of specific binding was determined. Biochemical assay results are presented as the percent inhibition of specific binding in Tables B1A-B1D.

SH-SY5Y cells = test: Cell viability assay (MTS reduction) against 4-Br-A23187 challenge; assay type: cell-based; conditions: Homo sapiens, SH-SY5Y, compound 10 nM, 4-Br-A23187 (2 μM) for 24 h, Control = 100, Vehicle = 0, read-out: Relative Cytoprotective capacity
Procedure: SH-SY5Y cells cultured in DMEM/F12 media supplemented with 10% FBS were seeded in 96-well microplates at 150,000 cells/cm^2. After 24 h, cells were depleted from FBS and kept in culture for 24 h before the experiment. A stock solution was prepared by dissolving the calcium ionophore 4-Br-A23187 (Calbiochem Cat. N^o 100107) in DMSO at 25 mM. Cells were then treated with 4-Br-A23187 (2 μM), hydrogen peroxide (300 μM) or the mitochondrial toxin rotenone (25 μM) in the presence of vehicle or Compound of the Invention for 24 h. Cell death was determined by measurements of LDH release according to the Cytotoxicity Detection KitPlus (Roche, Mannheim, Germany). Cell viability was determined by measuring the capacity of cells to metabolize MTS tetrazolium (MTS) according to the Cytotoxicity Detection KitPlus (Roche, Mannheim, Germany) and MTS reduction was assessed by the CellTiter 96® AQueous One Solution Cell Proliferation assay (Promega Corporation, Madison, Wis., USA). Compounds were screened at 10 nM, using DMSO as vehicle. Assay results for the experiments with Br-A23187 were presented as the MTS reduction capacity (cell viability) of untreated cells (control), 4-Br-A23187-treated cells (vehicle), and co-incubation of Br-A23187 with Compounds of the Invention treated cells and using […] (FCCP) at 10 μM for 30 min as a control. This assay assesses the ability of the test compounds to protect against cell death that was mediated by mitochondrial dysfunction. In the assay, the calcium ionophore 4-Br-A23187 was used to challenge the cells, causing calcium levels to rise in mitochondria, which leads to depolarization and cell death. Test compounds were assessed for their ability to prevent cell death in response to challenge with 4-Br-A23187.

[2] = biological target: T2, human recombinant adrenergic α2A receptor (Homo sapiens, UniProt P08913); test: Adrenergic α2A radioligand binding assay ([3H]MK-912); conditions: for inhibition at 0.1 µM / Percentage inhibition of ligand binding, Adrenergic α2A: 0.1 μM compound; for inhibition at 0.1 µM / inhibition at 1 µM: read-out: Percentage inhibition of ligand binding, Adrenergic α2A; for inhibition at 1 µM: 1 μM compound; for Percentage inhibition of ligand binding, Adrenergic α2A: 0.1 µM
T2 construct: expressed in transfected cells; host or cells: insect Sf9 cells
T2 sequence (P08913 1-465): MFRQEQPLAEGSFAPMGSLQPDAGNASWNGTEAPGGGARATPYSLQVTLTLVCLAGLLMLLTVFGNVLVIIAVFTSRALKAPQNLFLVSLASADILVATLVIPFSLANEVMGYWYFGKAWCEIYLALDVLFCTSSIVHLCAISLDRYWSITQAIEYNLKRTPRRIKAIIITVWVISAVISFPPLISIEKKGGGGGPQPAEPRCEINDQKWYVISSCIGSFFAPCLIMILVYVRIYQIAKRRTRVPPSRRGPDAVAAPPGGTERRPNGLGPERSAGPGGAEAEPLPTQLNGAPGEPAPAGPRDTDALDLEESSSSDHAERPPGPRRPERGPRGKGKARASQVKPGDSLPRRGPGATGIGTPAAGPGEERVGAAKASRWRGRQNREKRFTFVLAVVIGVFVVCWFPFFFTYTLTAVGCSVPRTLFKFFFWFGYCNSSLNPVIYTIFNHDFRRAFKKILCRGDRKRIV
Procedure: To evaluate in radioligand binding assays the activity of compounds of the invention, human recombinant adrenergic α2A receptor expressed in insect Sf9 cells (Uhlen, S. et al, J. Pharmacol. Exp. Ther. 271:1558, 1994) in a modified Tris-HCl buffer (50 mM Tris-HCl, pH 7.4, 12.5 mM MgCl2, 2 mM EDTA) was used. Compounds of invention were incubated with 1 nM [^3H]MK-912 for 60 min at 25° C. MK912 was (2S-trans)-1,3,4,5′,6,6′,7,12b-octahydro-1′,3′-dimethyl-spiro[2H-benzofuro[2,3-a]quinolizine-2,4′(1′H)-pyrimidin]-2′(3′H)-one hydrochloride Non-specific binding was estimated in the presence of 10 μM WB-4101 (2-(2,6-Dimethoxyphenoxyethyl)aminomethyl-1,4-benzodioxane hydrochloride). Receptor proteins were filtered and washed, the filters were then counted to determine [^3H]MK-912 specifically bound. Compounds were screened at 1 μM or lower, using 1% DMSO as vehicle. Compounds of the invention were tested in this biochemical assay and percent inhibition of specific binding was determined. Biochemical assay results are presented as the percent inhibition of specific binding in Tables B1A-B1D.

[3] = biological target: T3, rat adrenergic α1B receptor obtained from Wistar Rat liver (Rattus norvegicus, UniProt P15823); test: Adrenergic α1B radioligand binding assay ([3H]Prazosin); conditions: 0.1 μM compound; for inhibition at 0.1 µM: read-out: Percentage inhibition of ligand binding, Adrenergic α1B; for Percentage inhibition of ligand binding, Adrenergic α1B: 0.1 µM
T3 construct: rat adrenergic α1B receptor obtained from Wistar Rat liver; from tissue; host or cells: Wistar rat liver
T3 sequence (P15823 1-515): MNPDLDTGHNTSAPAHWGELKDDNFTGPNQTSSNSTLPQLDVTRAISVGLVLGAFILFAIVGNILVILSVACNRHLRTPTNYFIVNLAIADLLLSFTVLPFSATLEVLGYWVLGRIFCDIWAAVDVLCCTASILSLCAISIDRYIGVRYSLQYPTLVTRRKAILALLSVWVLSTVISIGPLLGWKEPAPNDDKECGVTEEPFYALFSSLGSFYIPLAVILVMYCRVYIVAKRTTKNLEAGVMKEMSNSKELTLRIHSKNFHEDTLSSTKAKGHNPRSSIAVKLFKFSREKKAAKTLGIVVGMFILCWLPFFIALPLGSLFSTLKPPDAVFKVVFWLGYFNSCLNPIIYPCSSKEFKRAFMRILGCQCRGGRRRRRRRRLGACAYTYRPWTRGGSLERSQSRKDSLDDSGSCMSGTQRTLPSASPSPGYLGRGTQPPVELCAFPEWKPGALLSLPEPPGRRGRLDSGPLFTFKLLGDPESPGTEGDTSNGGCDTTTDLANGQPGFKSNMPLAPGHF
Procedure: To evaluate in radioligand binding assays the activity of compounds of the invention, rat adrenergic α1B receptor obtained from Wistar Rat liver (Garcia-S'ainz, J. et al, Biochem. Biophys. Res. Commun. 186:760, 1992; Michel, A. et al, Br. J. Pharmacol. 98:883, 1989) in a modified Tris-HCl buffer (50 mM Tris-HCl buffer, pH 7.4, 0.5 mM EDTA) was used. Compounds of the invention were incubated with 0.25 nM [^3H]Prazosin for 60 min at 25° C. Non-specific binding was estimated in the presence of 10 μM phentolamine. Receptor proteins were filtered and washed, the filters were then counted to determine [^3H]Prazosin specifically bound. Compounds were screened at 1 μM or lower, using 1% DMSO as vehicle. Compounds of the invention were tested in this biochemical assay and percent inhibition of specific binding was determined. Biochemical assay results are presented as the percent inhibition of specific binding in Tables B1A-B1D.

[4] = biological target: T4, human recombinant adrenergic α1D receptor (Homo sapiens, UniProt P25100); test: Adrenergic α1D radioligand binding assay ([3H]Prazosin); conditions: for inhibition at 1 µM: 1 μM compound
T4 construct: expressed in transfected cells; host or cells: HEK-293 cells
T4 sequence (P25100 1-572): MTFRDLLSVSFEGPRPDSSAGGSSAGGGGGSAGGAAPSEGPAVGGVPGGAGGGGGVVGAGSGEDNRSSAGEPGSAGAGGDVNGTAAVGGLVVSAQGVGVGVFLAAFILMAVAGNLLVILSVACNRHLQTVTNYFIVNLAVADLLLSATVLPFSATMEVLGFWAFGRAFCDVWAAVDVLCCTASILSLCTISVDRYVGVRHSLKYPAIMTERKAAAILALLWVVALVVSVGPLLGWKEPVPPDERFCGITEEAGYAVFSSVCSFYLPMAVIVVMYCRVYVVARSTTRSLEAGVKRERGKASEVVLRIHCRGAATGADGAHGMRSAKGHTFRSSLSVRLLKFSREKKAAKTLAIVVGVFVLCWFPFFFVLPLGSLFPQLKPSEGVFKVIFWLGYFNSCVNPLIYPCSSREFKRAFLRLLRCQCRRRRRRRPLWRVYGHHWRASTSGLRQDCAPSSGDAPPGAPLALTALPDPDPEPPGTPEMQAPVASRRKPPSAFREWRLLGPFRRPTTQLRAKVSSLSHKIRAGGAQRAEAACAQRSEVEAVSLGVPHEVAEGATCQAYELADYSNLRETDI
Procedure: To evaluate in radioligand binding assays the activity of compounds of the invention, human recombinant adrenergic α1D receptor expressed in human embryonic kidney (HEK-293) cells (Kenny, B. et al, Br. J. Pharmacol. 115(6):981, 1995) in a 50 mM Tris-HCl buffer, pH 7.4, was used. Compounds were incubated with 0.6 nM [3H]Prazosin for 60 min at 25° C. Non-specific binding was estimated in the presence of 10 μM phentolamine. Receptor proteins were filtered and washed, the filters were then counted to determine [3H]Prazosin specifically bound. Compounds were screened at 1 μM or lower, using 1% DMSO as vehicle. Biochemical assay results are presented as the percent inhibition of specific binding in Tables B1A-B1D.

[5] = read-out: Percentage inhibition of ligand binding, Adrenergic α1D

Structure (SMILES): Cc1cc2c(-c3ccccc3)cn3c4c(c(c1)c23)CN(C)CC4 [B211]
- inhibition at 0.1 µM [1]: 82%

Structure (SMILES): Cc1ccc2c(c1)c1c3n2CC(C)(c2ccncc2)OC(C)CC3(C)CN(C)C1 (stereo not shown) [D9]
- viability at 0.01 µM (SH-SY5Y cells): 81.1%

Structure (SMILES): Cc1cc(CC(O)c2ccncc2)c2c(c1)c1c(n2C)CCN(C)C1 (stereo not shown) [A44]
- inhibition at 0.1 µM [2]: -5%
- inhibition at 0.1 µM [3]: -3%
- inhibition at 0.03 µM [1]: 31%

Structure (SMILES): CN1CCc2[nH]c3c(NCc4ccccc4)cccc3c2C1 [A3]
- viability at 0.01 µM (SH-SY5Y cells): 35.1%

Structure (SMILES): CN1CCc2[nH]c3c(N(C)Cc4ccccc4)cccc3c2C1 [A1]
- viability at 0.01 µM (SH-SY5Y cells): -1.1%

Structure (SMILES): Cc1cc(CC(O)c2ccncc2)c2[nH]c3c(c2c1)CN(C)CC3 (stereo not shown) [A43]
- inhibition at 0.1 µM [2]: 7%
- inhibition at 0.1 µM [3]: -1%
- inhibition at 0.03 µM [1]: 26%

Structure (SMILES): Cc1ccc(C2Cn3c4c(c5cccc2c53)CN(C)CC4)cn1 (stereo not shown) [B210]
- inhibition at 0.1 µM [1]: 14%

Structure (SMILES): Cc1cc2c3c(c1)c1c(n3CC(c3ccc(C)nc3)C2)CCN(C)C1 (stereo not shown) [B1]
- inhibition at 1 µM [2]: 15%
- inhibition at 1 µM [4, 5]: 28%
- inhibition at 1 µM [1]: 47%

Structure (SMILES): Cc1cc2c3c(c1)c1c(n3CC(C)(c3ccc(C)nc3)OC2C)CCN(C)C1 (stereo not shown) [B164]
- Percentage inhibition of ligand binding, Adrenergic α2A [2]: 6%
- Percentage inhibition of ligand binding, Adrenergic α1B [3]: 12%
- Percentage inhibition of ligand binding, Adrenergic α1D ([4]; 0.1 μM compound, 0.1 µM): 2%
- Percentage inhibition of ligand binding, Adrenergic α2B [1]: 16%

Structure (SMILES): Cc1cc2c3c(c1)c1c(n3CC(c3ccc(F)cc3)C2)CCN(C)C1 (stereo not shown) [B3]
- inhibition at 1 µM [2]: 89%
- inhibition at 1 µM [4, 5]: 38%
- inhibition at 1 µM [1]: 68%

Structure (SMILES): Cc1cc2c3c(c1)c1c(n3CC2c2ccc(F)cc2)CCN(C)C1 (stereo not shown) [B2]
- inhibition at 1 µM [2]: 89%
- inhibition at 1 µM [4, 5]: 24%
- inhibition at 1 µM [1]: 74%

Structure (SMILES): Cc1cc2c3c(c1)c1c(n3CC(C)(c3ccc(C)nc3)OC2C)CCN(C)C1 (stereo not shown) [B161]
- Percentage inhibition of ligand binding, Adrenergic α2A [2]: 13%
- Percentage inhibition of ligand binding, Adrenergic α1B [3]: 2%
- inhibition at 0.1 µM ([4]; 0.1 μM compound, read-out: Percentage inhibition of ligand binding, Adrenergic α1D): 1%
- Percentage inhibition of ligand binding, Adrenergic α2B [1]: 7%
